Experimental findings from patent publication US8420675B2, “Aminotetrahydroindazoloacetic acids” (Hoffmann-La Roche Inc., priority 2008, dated 2013) are described below.

Usually IC50 stands for the point on the concentration scale where inhibition reaches its midpoint.

The structures appear in SMILES notation.

The experiment concerns the target T1, human CRTH2 (Homo sapiens, UniProt Q9Y5Y4).
T1 construct: expressed in transfected cells
T1 sequence (Q9Y5Y4 1-395): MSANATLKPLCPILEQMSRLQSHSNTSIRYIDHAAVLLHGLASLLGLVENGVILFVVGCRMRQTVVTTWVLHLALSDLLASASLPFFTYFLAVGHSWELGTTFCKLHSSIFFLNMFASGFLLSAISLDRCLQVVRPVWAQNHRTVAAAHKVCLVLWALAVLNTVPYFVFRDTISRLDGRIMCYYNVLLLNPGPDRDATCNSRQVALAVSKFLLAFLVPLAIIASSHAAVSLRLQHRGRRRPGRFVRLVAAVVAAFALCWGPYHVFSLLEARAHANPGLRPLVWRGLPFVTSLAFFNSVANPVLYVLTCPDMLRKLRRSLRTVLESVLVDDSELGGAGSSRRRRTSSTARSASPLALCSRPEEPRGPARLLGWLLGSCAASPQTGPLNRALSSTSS
Put plainly: Human CRTH2 Receptor Binding Assay (whole cell, [3H]ramatroban competition). Particulars: CHO-K1 cells expressing human CRTH2 and G-alpha16; 20 nM [3H]ramatroban; 1 hour, room temperature. A digest of the protocol: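 CHO-K1 cells stably co-expressing human CRTH2 and G-alpha16, 1.5×10^5 per reaction, incubated 1 hour at room temperature with 20 nM [3H]ramatroban in PBS containing 10 mM MgCl2 and 0.06% BSA. Non-specific binding defined with 10 μM 15(R)-15-methyl PGD2. IC50 from 7 concentrations by 4-parameter logistic fit of specific binding inhibition.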
Compound `O=C(O)Cn1ncc2c1CCCC2NS(=O)(=O)c1cccc(-c2ccccc2Cl)c1` (centres unmarked) [Example 10-12a, [4-(2′-Chloro-biphenyl-3-sulfonylamino)-4,5,6,7-tetrahydro-indazol-1-yl]-acetic acid] returned a 50% inhibitory concentration (IC50) of 311 nM.

The compound `O=C(O)Cn1ncc2c1CCC[C@H]2NS(=O)(=O)c1ccc(-c2cccc(Cl)c2)cc1` [Example 10-13a, [(R)-4-(3′-Chloro-biphenyl-4-sulfonylamino)-4,5,6,7-tetrahydro-indazol-1-yl]-acetic acid] yielded an IC50 of 153 nM.

For the compound `O=C(O)Cn1ncc2c1CCCC2NS(=O)(=O)c1ccc(-c2cccc(OC(F)(F)F)c2)cc1` (centres unmarked) [Example 10-14a, [4-(3′-Trifluoromethoxy-biphenyl-4-sulfonylamino)-4,5,6,7-tetrahydro-indazol-1-yl]-acetic acid], the concentration for half-maximal inhibition (IC50) is 58.1 nM.

In turn, `O=C(O)Cn1ncc2c1CCCC2NS(=O)(=O)c1ccc(-c2ccc(F)c(Cl)c2)cc1` (centres unmarked) [Example 10-15a, [4-(3′-Chloro-4′-fluoro-biphenyl-4-sulfonylamino)-4,5,6,7-tetrahydro-indazol-1-yl]-acetic acid] yielded an IC50 of 466 nM.

Compound `O=C(O)Cn1ncc2c1CCCC2NS(=O)(=O)c1cc(-c2ccccc2)cc(C(F)(F)F)c1` (centres unmarked) [Example 10-16a, [4-(5-Trifluoromethyl-biphenyl-3-sulfonylamino)-4,5,6,7-tetrahydro-indazol-1-yl]-acetic acid] returned an IC50 of 66.1 nM.

For the compound `O=C(O)Cn1ncc2c1CCCC2NS(=O)(=O)c1ccc(-c2ccccc2C(F)(F)F)cc1` (centres unmarked) [Example 10-17a, [4-(2′-Trifluoromethyl-biphenyl-4-sulfonylamino)-4,5,6,7-tetrahydro-indazol-1-yl]-acetic acid], the half-maximal inhibitory concentration (IC50) is 262 nM.

`Cc1cc(C)cc(-c2ccc(S(=O)(=O)NC3CCCc4c3cnn4CC(=O)O)cc2)c1` (centres unmarked) [Example 10-18a, [4-(3′,5′-Dimethyl-biphenyl-4-sulfonylamino)-4,5,6,7-tetrahydro-indazol-1-yl]-acetic acid] yielded an IC50 of 188 nM.

Compound `O=C(O)Cn1ncc2c1CCCC2NS(=O)(=O)c1ccc(-c2cccc(O)c2)cc1` (centres unmarked) [Example 10-19a, [4-(3′-Hydroxy-biphenyl-4-sulfonylamino)-4,5,6,7-tetrahydro-indazol-1-yl]-acetic acid] registered an IC50 of 267 nM.

Consider `CCOc1cccc(-c2ccc(S(=O)(=O)NC3CCCc4c3cnn4CC(=O)O)cc2)c1` (centres unmarked) [Example 10-20a, [4-(3′-Ethoxy-biphenyl-4-sulfonylamino)-4,5,6,7-tetrahydro-indazol-1-yl]-acetic acid], for which the half-inhibitory concentration (IC50) was 272 nM.

On to `CC(C)Oc1cccc(-c2ccc(S(=O)(=O)NC3CCCc4c3cnn4CC(=O)O)cc2)c1` (centres unmarked) [Example 10-21a, [4-(3′-Isopropoxy-biphenyl-4-sulfonylamino)-4,5,6,7-tetrahydro-indazol-1-yl]-acetic acid], for which the IC50 is 120 nM.

`CC(=O)c1cccc(-c2ccc(S(=O)(=O)NC3CCCc4c3cnn4CC(=O)O)cc2)c1` (centres unmarked) [Example 10-22a, [4-(3′-Acetyl-biphenyl-4-sulfonylamino)-4,5,6,7-tetrahydro-indazol-1-yl]-acetic acid] returned an IC50 of 152 nM.

`O=C(O)Cn1ncc2c1CCCC2NS(=O)(=O)c1ccc(-c2cccc([N+](=O)[O-])c2)cc1` (centres unmarked) [Example 10-23a, [4-(3′-Nitro-biphenyl-4-sulfonylamino)-4,5,6,7-tetrahydro-indazol-1-yl]-acetic acid]: the IC50 was determined as 238 nM.

In the case of `O=C(O)Cn1ncc2c1CCCC2NS(=O)(=O)c1ccc(-c2cc(C(F)(F)F)cc(C(F)(F)F)c2)cc1` (centres unmarked) [Example 10-24a, [4-(3′,5′-Bis-trifluoromethyl-biphenyl-4-sulfonylamino)-4,5,6,7-tetrahydro-indazol-1-yl]-acetic acid], the 50% inhibitory concentration (IC50) worked out at 97.5 nM.

The compound `O=C(O)Cn1ncc2c1CCC[C@H]2NS(=O)(=O)c1ccc(-c2cccc(C(F)(F)F)c2)cc1` [Example 10-25a, [(R)-4-(3′-Trifluoromethyl-biphenyl-4-sulfonylamino)-4,5,6,7-tetrahydro-indazol-1-yl]-acetic acid] showed an IC50 of 13.1 nM.
